How the values were obtained:
recombinant human ACC1 = recombinant human ACC1 (Homo sapiens (Human), UniProt Q13085); experiment: Measurement of inhibitory activity of human ACC1 (MALDI-TOF MS); type: biochemical; conditions: read-out: IC50 hACC1
Text: A cDNA encoding human ACC1 protein (1 amino acid residue to 2346 amino acid residues from the N-terminus) was cloned from a human liver cDNA library (BioChain Institute Inc.), myc tag and His-tag sequences were introduced at the 3′ end, and then inserted into pIEXBAC3 (Novagen). A recombinant baculovirus was produced in accordance with the protocol for Flash BACGOLD (Oxford Expression Technologies Ltd.), and Sf-9 cells were infected therewith to express human ACC1 protein. The recovered cells were crushed, filtered through a filter, and then subjected to Ni affinity chromatography and anion exchange chromatography. Fractions containing human ACC1 protein were collected to obtain recombinant human ACC1.
The recombinant human ACC1 and the recombinant human ACC2 obtained from the above Preparation Examples were preincubated in an assay buffer (50 mM HEPES-KOH (pH 7.4), 10 mM magnesium chloride, 6 to 10 mM potassium citrate, 4 mM glutathione reduced form, and 1.5 mg/ml bovine serum albumin) for 1 hour. Then, 5 μL of the pre-incubated enzyme solution and 5 μL of a substrate solution (50 mM HEPES-KOH (pH 7.4), 1 mM ATP, 0.8 mM acetyl-CoA, and 25 to 50 mM potassium bicarbonate) were added to a 384-well microplate into which 0.2 μl of each of solutions of the compound of the present invention (DMSO had been dispensed, and the mixture was centrifuged and shaken, and then incubated in a wet box at room temperature for 1 to 3 hours. After incubation, the enzymatic reaction was stopped by addition of EDTA, and then the sample was co-crystallized with an α-cyano-4-hydroxy cinnamic acid (CHCA) matrix on a MALDI target plate, and measurement was performed in a reflector negative mode using a matrix-assisted laser desorption ionization-time-of-flight mass spectrometer (MALDI-TOF MS). Deprotonated ions of the substrate acetyl-CoA (AcCoA) and the reaction product malonyl-CoA (MalCoA) were detected, and the intensity of each signal was used to calculate a conversion rate to malonyl-CoA or succinyl-CoA, i.e., intensity of [MalCoA-H]—/(intensity of [MalCoA-H]-+intensity of [AcCoA.H].). […] The potassium citrate concentration in the assay buffer, the potassium bicarbonate concentration in the substrate solution, and the incubation time were adjusted within the above concentrations or reaction times for each lot of the enzyme to be used.

[1] = Metabolic stability test, rat; type: in vitro ADME; conditions: 30 minutes
SD rats = experiment: Lipid in skeletal muscle cells (IMCL) in SD rats, MRS; type: in vivo; conditions: 20 mg/kg single oral, 24 hours after administration
Protocol: (§1) In order to examine the influence of Compound I-13 on lipid in skeletal muscle cells (IMCL), 24 hours after a single oral administration of a vehicle or Compound I-13 (20 mg/kg) to SD rats, MR spectroscopy (MRS) data of the tibialis anterior muscle was measured using animal MRI (Varian MRI System 7T/210, Agilent Technologies) under isoflurane anesthesia. The measurement data was analyzed using software for quantitative analysis of MRS data (LCModel), and the quantity of IMCL was calculated as a creatine ratio.

Atgl knockout mice = experiment: Spontaneous motility of Atgl knockout mice; type: in vivo; conditions: 45 mg/kg/10 mL repeated administration, 12 weeks of age, p<0.05, Welch's t test
Protocol: Atgl (adipose-triglyceride lipase) knockout mice are known as non clinical models of TGCV. Atgl knockout mice (KO mice) deficient in the Atgl gene were each produced by a known method.
In order to examine the influence of the compounds of the present invention on spontaneous motility, spontaneous motility of Atgl knockout mice was measured using SCANET MV-40 ([…]) at 12 weeks of age after repeated administration of vehicle or the compounds of the present invention to the Atgl knockout mice. The mice were allowed to stand in a cage placed in the device, and the motility thereof for 30 minutes was measured.

[2] = system: leptin receptor deficient mice (db/db mice); experiment: Lipid in skeletal muscle cells (IMCL) in diabetes model mice, MRS; type: in vivo; conditions: 15 mg/kg single oral, 6 hours after administration
Protocol: as §1, with “I-12” for “I-13”, “(IMCL) of diabetes model mice, 6” for “(IMCL), 24”, “I-12 (15” for “I-13 (20”, “leptin receptor deficient mice (Leprdb/Leprdb, db/db; db/db mice),” for “SD rats,”

ZDF rats = experiment: Lipid in skeletal muscle cells (IMCL) in diabetes model rats, MRS; type: in vivo; conditions: oral twice a day (7 mg/kg then 10 or 23 mg/kg), 24 hours after first administration
Protocol: In order to examine the influence of Compound I-12 on lipid in skeletal muscle cells (IMCL) of diabetic model rats, vehicle or Compound I-12 was orally administered to a spontaneous diabetes model (ZDF rats) twice a day (first morning administration: 7 mg/kg; second afternoon administration: 10 or 23 mg/kg), and 24 hours after the first administration, MR spectroscopy (MRS) data of the tibialis anterior muscle were measured using animal MRI (Varian MRI System 7T/210, Agilent Technologies) under isoflurane anesthesia. The measurement data was analyzed using software for quantitative analysis of MRS data (LCModel), and the quantity of IMCL was calculated as a creatine ratio.

IC50 (recombinant human ACC1) [µM]	Remaining amount of compound, Rat [1] [%]	Structure (SMILES)	IMCL (creatine ratio), tibialis anterior muscle (SD rats)	spontaneous motility (30 minutes) (Atgl knockout mice)	IMCL (creatine ratio), tibialis anterior muscle [2]	IMCL (creatine ratio), tibialis anterior muscle (ZDF rats)
0.91	87	CC(=O)N[C@@H](C)CCC1OCC(Oc2nc3c(F)c(OC4CC4)ccc3n2C)CO1 (some centres unmarked) [Compound I-13]	significant IMCL decreasing effect	significant improving effect	–	–
6.9	85.5	C[C@@H](COC1CCC(Oc2nc3c(F)cc(OC4CC4)cc3n2C)CC1)NC(N)=O (some centres unmarked) [Compound I-12]	–	–	significant IMCL decreasing effect	significant IMCL decreasing effect

From US20250041279A1, “THERAPEUTIC MEDICINE FOR HEART DISEASE OR SKELETAL MUSCLE DISEASE” (SHIONOGI & CO., LTD., priority 2021, published 2025)
